In ChEMBL document CHEMBL1158115, “Acylphloroglucinol derivatives from Hypericum prolificum” (J Nat Prod, 2006):
pIC50: −log10 of the molar value. Active and inactive are the calls of the source. No cut-off for these calls is given here.

How the values were obtained:
[1] = tested on: MCF7; assay: Cytotoxicity against human MCF7 cells by MTT assay; format: functional, cell-based
[2] = target: T1, Prostaglandin G/H synthase 2 (Homo sapiens) (UniProt P35354); assay: Inhibition of cyclooxygenase 2 at 103.7 uM
T1 sequence (whole entry): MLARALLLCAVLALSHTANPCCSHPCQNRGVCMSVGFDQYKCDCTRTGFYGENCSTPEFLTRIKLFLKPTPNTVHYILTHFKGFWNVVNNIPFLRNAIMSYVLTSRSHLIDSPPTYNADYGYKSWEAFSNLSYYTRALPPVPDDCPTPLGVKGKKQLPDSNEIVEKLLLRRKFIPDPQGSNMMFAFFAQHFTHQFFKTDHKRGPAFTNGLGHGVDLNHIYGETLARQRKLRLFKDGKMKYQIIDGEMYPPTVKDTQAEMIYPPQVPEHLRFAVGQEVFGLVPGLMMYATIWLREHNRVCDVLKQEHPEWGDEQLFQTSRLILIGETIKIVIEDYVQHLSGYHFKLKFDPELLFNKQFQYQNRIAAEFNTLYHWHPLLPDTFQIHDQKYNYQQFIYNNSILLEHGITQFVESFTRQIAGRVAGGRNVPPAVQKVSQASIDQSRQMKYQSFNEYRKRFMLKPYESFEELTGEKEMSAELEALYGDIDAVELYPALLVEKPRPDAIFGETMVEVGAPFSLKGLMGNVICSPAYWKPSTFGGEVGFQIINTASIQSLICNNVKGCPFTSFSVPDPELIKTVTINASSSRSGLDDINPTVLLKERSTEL

[3] = target: Prostaglandin G/H synthase 1 (Homo sapiens) (UniProt P23219); assay: Inhibition of cyclooxygenase 1 at 103.7 uM
Prostaglandin G/H synthase 1 (Homo sapiens), sequence (P23219 whole entry): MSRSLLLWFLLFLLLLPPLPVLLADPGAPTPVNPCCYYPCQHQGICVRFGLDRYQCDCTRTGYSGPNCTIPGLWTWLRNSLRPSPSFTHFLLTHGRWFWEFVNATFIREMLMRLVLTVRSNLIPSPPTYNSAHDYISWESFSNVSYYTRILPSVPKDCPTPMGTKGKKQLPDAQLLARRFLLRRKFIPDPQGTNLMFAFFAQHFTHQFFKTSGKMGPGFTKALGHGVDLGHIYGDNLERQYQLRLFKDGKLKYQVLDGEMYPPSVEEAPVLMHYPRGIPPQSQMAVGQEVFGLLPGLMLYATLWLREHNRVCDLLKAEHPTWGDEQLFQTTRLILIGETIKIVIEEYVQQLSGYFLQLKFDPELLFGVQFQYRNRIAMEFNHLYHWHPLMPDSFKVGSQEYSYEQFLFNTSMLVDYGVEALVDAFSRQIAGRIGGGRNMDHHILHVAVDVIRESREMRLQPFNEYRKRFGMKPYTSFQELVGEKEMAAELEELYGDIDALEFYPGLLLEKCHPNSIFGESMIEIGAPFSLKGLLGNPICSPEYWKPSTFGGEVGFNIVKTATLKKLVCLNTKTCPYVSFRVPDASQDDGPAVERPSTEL

[4] = tested on: NCI-H460; assay: Cytotoxicity against human NCI-H460 cells by MTT assay; format: functional, cell-based
[5] = tested on: SF-268; assay: Cytotoxicity against human SF-268 cells by MTT assay; format: functional, cell-based
[6] = tested on: AGS; assay: Cytotoxicity against human AGS cells by MTT assay; format: functional, cell-based
[7] = tested on: HCT-116; assay: Cytotoxicity against human HCT116 cells by MTT assay; format: functional, cell-based

Row | Activity [2] | Activity [3] | SMILES | Activity [1] | Activity [4] | Activity [5] | Activity [6] | Activity [7] | pIC50 [1] | pIC50 [4] | pIC50 [5] | pIC50 [6] | pIC50 [7]
1 | inactive | inactive | CC(C)=CCC/C(C)=C/CC[C@]1(C)[C@@H](CC=C(C)C)CC2C(=O)C1(C(=O)C(C)C)C(=O)C=C2O (stereo partly specified) | inactive | inactive | inactive | inactive | inactive | – | – | – | – | –
2 | inactive | inactive | CCC(C)C(=O)c1c(O)cc(O)c2c1O[C@](C)(CC/C=C(\C)CCC=C(C)C)[C@@H](CC=C(C)C)C2 (stereo partly specified) [PROLIFICIN A] | – | – | – | – | – | 4.63 | 4.52 | 4.51 | 4.49 | 4.45
3 | inactive | inactive | CCC(C)C(=O)C12C(=O)C=C(O)C(C[C@H](CC=C(C)C)[C@@]1(C)CC/C=C(\C)CCC=C(C)C)C2=O (stereo partly specified) | inactive | inactive | inactive | inactive | inactive | – | – | – | – | –
4 | – | – | COc1cccc2c1C(=O)c1c(O)c3c(c(O)c1C2=O)C[C@@](O)(C(=O)CO)C[C@@H]3O[C@H]1C[C@H](N)[C@H](O)[C@H](C)O1 [DOXORUBICIN] | – | – | – | – | – | 6.37 | 6.18 | 5.81 | 6.51 | 6.39
